According to US20160075653A1, “NEMATICIDAL N-(PHENYLCYCLOALKYL)CARBOXAMIDES AND N-(PHENYLCYCLOALKYL)THIOCARBOXAMIDES” (BAYER CROPSCIENCE AKTIENGESELLSCHAFT, priority 2013, published 2016):
Where two headings read alike, the source gives them in different places.

Experiment: Measurement of log P values by HPLC on reversed phase columns (methods [a] pH 2.3, [b] pH 2.7, [c] pH 7.8)
Assay type: physicochemical
Conditions: for chromatographic logP: reversed phase HPLC columns, read-out: logP
In short: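 Retention times were converted to log P by linear interpolation between linear alkan-2-one standards (3 to 16 carbons) of known log P. Eluents, each with 10% to 95% acetonitrile gradient: phosphoric acid 0.1% at pH 2.3 [a]; formic acid 0.1% at pH 2.7, LC-MS [b]; ammonium hydrogen carbonate 0.001 molar at pH 7.8, LC-MS [c].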

[1] = HPLC on reversed phase column, method [b], pH 2.7
[2] = HPLC reversed phase, method [b] (pH 2.7)
[3] = HPLC reversed phase, method [c] pH 7.8
[4] = method [b], HPLC reversed phase, pH 2.7
[5] = pH 2.7, HPLC on reversed phase columns, method [b] (pH 2.7)
[6] = HPLC on reversed phase columns, method [b], pH 2.7
[7] = pH 2.7, HPLC reversed phase, method [b] (pH 2.7)
[8] = HPLC on reversed phase column, method [c], pH 7.8

In the case of `O=C(N[C@@H]1CC[C@H]1c1ccc(Cl)cc1C(F)(F)F)c1nccnc1Cl` (relative stereo) [Example 716], the logP [1] is reported as 3.56^[b].

With `O=C(NC1CCCCC1c1ccc(Cl)cc1Cl)c1ccccc1C(F)(F)F` (centres unmarked) [Example 412] the logP [2] was 4.49^[b].

In the case of `O=C(NC1CCCC1c1ccc(C(F)(F)F)cc1)c1ccccc1Cl` (centres unmarked) [Example 305], the logP [2] is reported as 3.68^[b] and the logP [3] is reported as 3.63^[c];.

In the case of `O=C(N[C@@H]1CC[C@@H]1c1c(F)cccc1C(F)(F)F)c1cccc(Cl)c1` (relative stereo) [Example 552], the logP [2] is reported as 4.26^[b].

With `Cn1nc(C(F)F)c(C(=O)N(C2CC2)C2CCCCC2c2ccccc2Cl)c1F` (centres unmarked) [Example 169] the logP [4] was 4.49^[b].

In the case of `Cn1nc(C(F)F)c(C(=O)NC2CC2c2ccccc2C(F)(F)F)c1F` (centres unmarked) [Example 189], the logP [4] is reported as 3.00^[b].

For `Cc1cc(C(=O)N(C2CC2)C2CCCC2c2ccccc2Cl)c(C)o1` (centres unmarked) [Example 176], the logP [4] was 4.95^[b].

For `Cc1nc(C(F)(F)F)c(C(=O)N[C@@H]2CC[C@@H]2c2cc(F)ccc2C(F)(F)F)s1` (relative stereo) [Example 569], the logP [2] was 3.40^[b].

For `O=C(NC1CCCCC1c1ccc(Cl)cc1)c1cccnc1C(F)(F)F` (centres unmarked) [Example 368], the logP [2] was 3.31^[b].

`O=C(N[C@@H]1CC[C@@H]1c1c(Cl)cccc1Cl)c1ccccc1I` [Example 737] showed a chromatographic logP [5] of 3.72.

With `O=C(N[C@@H]1CC[C@@H]1c1ccc(F)cc1C(F)(F)F)c1ccc(Cl)cc1Cl` (relative stereo) [Example 506] the logP [2] was 3.85^[b].

With `Cc1nc(C(F)(F)F)c(C(=O)NC2CC2c2ccc(F)cc2)s1` (centres unmarked) [Example 26] the logP [6] was 3.87^[b].

In the case of `O=C(N[C@@H]1C[C@@H]1c1ccc(Cl)cc1Cl)c1cccnc1C(F)(F)F` (relative stereo) [Example 565], the logP [2] is reported as 2.85^[b].

For `CC(C)Oc1ccc([C@H]2CCC[C@H]2NC(=O)c2c(F)cccc2F)cc1` (relative stereo) [Example 329], the logP [2] was 3.55^[b] and the logP [3] was 3.49^[c];.

With `O=C(NC1CCC1c1c(F)cccc1F)c1c(F)cccc1F` (centres unmarked) [Example 439] the logP [2] was 2.83^[b].

With `O=C(N[C@@H]1C[C@H]1c1ccccc1)c1ccccc1Br` (relative stereo) [Example 45] the logP [6] was 2.79^[b].

With `Cn1cc(C(=O)N[C@@H]2CCC[C@@H]2c2ccc(F)c(F)c2)c(=O)[nH]1` (relative stereo) [Example 113] the logP [6] was 2.00^[b].

In the case of `Cc1nn(C)c(F)c1C(=O)NC1CC1c1ccccc1` (centres unmarked) [Example 5], the logP [6] is reported as 2.00^[b].

For `O=C(N[C@@H]1CC[C@@H]1c1c(Cl)cccc1Cl)c1ccccc1[N+](=O)[O-]` [Example 733], the chromatographic logP [5] was 3.08.

In the case of `Cn1cc(C(=O)NC2CCC2c2ccc(Cl)cc2Cl)c(C(F)F)n1` (centres unmarked) [Example 469], the logP [2] is reported as 2.95^[b].

With `O=C(NC1CC1c1ccc(Cl)cc1)c1ccsc1I` (centres unmarked) [Compound 460] the logP [2] was 2.94^[b] and the logP [3] was 2.93^[c];.

For `COc1nn(C)cc1C(=O)N[C@@H]1C[C@H]1c1ccccc1` (relative stereo) [Example 41], the logP [6] was 2.03^[b].

In the case of `Cc1nc(C(F)(F)F)c(C(=O)NC2CCC2c2ccc(Cl)cc2C(F)(F)F)s1` (centres unmarked) [Example 730], the logP [6] is reported as 4.03^[b].

In the case of `O=C(N[C@@H]1CCC[C@@H]1c1ccc(F)c(F)c1)c1ccccc1I` (relative stereo) [Example 58], the logP [6] is reported as 3.31^[b].

For `Cc1nn(C)c(C)c1C(=O)N(C1CC1)C1CCCCC1c1ccccc1` (centres unmarked) [Example 146], the logP [4] was 3.13^[b].

For `O=C(NC1CCC1c1c(Cl)cccc1Cl)c1cccc(Cl)c1` (centres unmarked) [Example 729], the logP [6] was 3.87^[b].

In the case of `O=C(NC1CCCCC1c1c(F)cccc1F)c1ccccc1I` (centres unmarked) [Example 400], the logP [2] is reported as 3.84^[b].

For `O=C(NC1CCC1c1ccc(Cl)cc1Cl)c1ccccc1` (centres unmarked) [Example 450], the logP [2] was 3.75^[b].

For `O=C(NC1CC1c1ccccc1Cl)c1cccnc1C(F)(F)F` (centres unmarked) [Example 499], the logP [2] was 2.62^[b].

For `O=C(N[C@@H]1CC[C@H]1c1ccccc1C(F)(F)F)c1ccccc1Cl` [Example 498], the chromatographic logP [7] was 3.42.

In the case of `O=C(N[C@@H]1CC[C@H]1c1ccc(Cl)cc1C(F)(F)F)c1ccc(Cl)cc1Cl` (relative stereo) [Example 665], the logP [1] is reported as 4.55^[b].

With `CCCc1nn(C)cc1C(=O)N[C@@H]1CCC[C@@H]1c1ccc(F)c(F)c1` (relative stereo) [Example 81] the logP [6] was 2.80^[b].

For `O=C(N[C@@H]1CC[C@H]1c1ccc(F)cc1C(F)(F)F)c1ccc(Cl)cc1` (relative stereo) [Example 507], the logP [2] was 3.94^[b].

With `O=C(NC1CCCC1c1ccccc1C(F)(F)F)c1cccnc1Cl` (centres unmarked) [Example 301] the logP [2] was 2.90^[b].

In the case of `Cc1nc(C(F)(F)F)c(C(=O)N[C@@H]2CC[C@H]2c2ccccc2Cl)s1` (relative stereo) [Example 554], the logP [2] is reported as 3.34^[b].

For `O=C(N[C@@H]1CCC[C@@H]1c1ccccc1C(F)(F)F)c1cccnc1C(F)(F)F` [Example 290], the chromatographic logP [7] was 3.29.

With `O=C(N[C@@H]1CC[C@H]1c1ccccc1Cl)c1cccnc1Cl` (relative stereo) [Example 533] the logP [2] was 3.65^[b].

For `Cc1ccsc1C(=O)N[C@@H]1CCC[C@@H]1c1ccc(F)c(F)c1` (relative stereo) [Example 70], the logP [6] was 3.39^[b].

For `O=C(N[C@@H]1CC[C@@H]1c1ccc(Cl)cc1C(F)(F)F)c1ccc(Cl)cc1` (relative stereo) [Example 707], the logP [1] was 4.04^[b].

With `O=C(N[C@@H]1CC[C@H]1c1ccccc1Cl)c1ccccc1Br` (relative stereo) [Example 244] the logP [2] was 3.33^[b].

In the case of `O=C(N[C@@H]1CC[C@H]1c1cccc(F)c1C(F)(F)F)c1cccnc1` (relative stereo) [Example 664], the logP [1] is reported as 2.38^[b].

In the case of `O=C(NC1CCC1c1ccc(F)cc1C(F)(F)F)c1ncc(C(F)(F)F)cc1Cl` (centres unmarked) [Example 480], the logP [2] is reported as 4.23^[b].

Work on `O=C(N[C@@H]1CCC[C@@H]1c1ccc(C(F)(F)F)cc1)c1nccnc1Cl` [Example 748] yielded a chromatographic logP [5] of 3.2.

In the case of `Cn1cc(C(=O)NC2CCCCC2c2ccccc2)c(C(F)F)n1` (centres unmarked) [Example 185], the logP [4] is reported as 2.76^[b].

In the case of `O=C(NC1CCCCC1c1ccccc1C(F)(F)F)c1c(F)cccc1F` (centres unmarked) [Example 386], the logP [2] is reported as 3.80^[b].

In the case of `O=C(NC1CCC1c1ccccc1Cl)c1ccc(Cl)cc1` (centres unmarked) [Example 446], the logP [2] is reported as 3.70^[b].

In the case of `Cc1nc(C)c(C(=O)NC2CCCC2c2c(F)cccc2F)s1` (centres unmarked) [Example 312], the logP [2] is reported as 2.65^[b].

For `O=C(N[C@@H]1CC[C@@H]1c1ccc(Cl)cc1C(F)(F)F)c1cccnc1` (relative stereo) [Example 714], the logP [1] was 2.50^[b].

With `Cn1cc(C(=O)NC2CC2c2ccccc2)c(C(F)(F)F)n1` (centres unmarked) [Example 4] the logP [6] was 2.34^[b].

For `O=C(NC1CCC1c1c(Cl)cccc1Cl)c1ccccc1` (centres unmarked) [Example 728], the logP [6] was 3.30^[b].

In the case of `CC1=C(C(=O)N[C@@H]2C[C@@H]2c2ccc(Cl)cc2Cl)SCCO1` (relative stereo) [Example 615], the logP [1] is reported as 3.06^[b] and the logP [8] is reported as 3.01^[c];.

With `CC1=C(C(=O)N[C@@H]2CCC[C@@H]2c2ccc(F)c(F)c2)SCCO1` (relative stereo) [Example 79] the logP [6] was 3.15^[b].

For `O=C(N[C@@H]1CC[C@H]1c1ccc(Cl)cc1C(F)(F)F)c1ccc(Cl)cc1` (relative stereo) [Example 706], the logP [1] was 4.43^[b].

In the case of `O=C(N[C@@H]1CC[C@@H]1c1ccc(Cl)cc1Cl)c1sccc1I` (relative stereo) [Example 671], the logP [1] is reported as 4.20^[b].

In the case of `Cc1nc(C(F)(F)F)c(C(=O)N[C@@H]2CC[C@@H]2c2ccc(F)cc2C(F)(F)F)s1` (relative stereo) [Example 531], the logP [2] is reported as 3.35^[b].

With `Cc1nc(C(F)(F)F)c(C(=O)N[C@@H]2CC[C@H]2c2ccc(F)cc2C(F)(F)F)s1` (relative stereo) [Example 530] the logP [2] was 3.60^[b].

In the case of `O=C(NC1CC1c1ccc(Cl)cc1)c1cccnc1Cl` (centres unmarked) [Compound 274], the logP [2] is reported as 2.14^[b] and the logP [3] is reported as 2.10^[c];.

For `O=C(NC1CCC1c1ccccc1C(F)(F)F)c1ncccc1Cl` (centres unmarked) [Example 458], the logP [2] was 3.22^[b].

With `O=C(N[C@@H]1CC[C@@H]1c1ccccc1Cl)c1ccc(Cl)cc1` [Example 455] the chromatographic logP [7] was 3.35.

For `N#Cc1ncccc1C(=O)N[C@@H]1CCC[C@H]1c1ccc(F)c(F)c1` (relative stereo) [Example 110], the logP [6] was 3.31^[b].

For `O=C(N[C@@H]1CC[C@H]1c1ccc(Cl)cc1Cl)c1ncc(C(F)(F)F)cc1Cl` (relative stereo) [Example 258], the logP [2] was 4.53^[b].

For `Nc1nc(C(F)(F)F)c(C(=O)N[C@@H]2CCC[C@@H]2c2ccc(F)c(F)c2)s1` (relative stereo) [Example 97], the logP [6] was 2.82^[b].

In the case of `CC(C)Oc1ccc([C@H]2CCC[C@H]2NC(=O)c2nccnc2Cl)cc1` (relative stereo) [Example 335], the logP [2] is reported as 3.23^[b] and the logP [3] is reported as 3.21^[c];.

In the case of `Cc1nc(C)c(C(=O)NC2CCCC2c2ccc(Cl)cc2Cl)s1` (centres unmarked) [Example 354], the logP [2] is reported as 3.24^[b].

With `Cc1ccccc1C(=O)NC1CC1c1ccc(Cl)cc1` (centres unmarked) [Compound 276] the logP [2] was 2.76^[b] and the logP [3] was 2.70^[c];.

In the case of `Cc1nc(C)c(C(=O)NC2CCCCC2c2ccccc2Br)s1` (centres unmarked) [Example 401], the logP [2] is reported as 3.35^[b].

In the case of `Cc1nn(C)cc1C(=O)NC1CCCC1c1ccc(Cl)cc1Cl` (centres unmarked) [Example 359], the logP [2] is reported as 2.67^[b].

With `Cn1cc(C(=O)N(C2CC2)C2CCCCC2c2ccc(Cl)cc2Cl)c(C(F)F)n1` (centres unmarked) [Example 157] the logP [4] was 4.59^[b].

With `CC1=C(C(=O)NC2CCC2c2ccccc2C(F)(F)F)S(=O)(=O)CCO1` (centres unmarked) [Example 606] the logP [1] was 2.49^[b] and the logP [8] was 2.45^[c];.

For `Cn1nc(C(F)F)c(C(=O)NC2CC2c2ccc(F)cc2)c1F` (centres unmarked) [Example 188], the logP [4] was 2.59^[b].

In the case of `N#Cc1ccccc1C(=O)N[C@@H]1C[C@@H]1c1ccc(Cl)cc1Cl` (relative stereo) [Example 650], the logP [1] is reported as 2.72^[b] and the logP [8] is reported as 2.70^[c];.
